According to patent US20160106439A1, “PNEUMATIC TOURNIQUET” (BIONUMERIK PHARMACEUTICALS, INC., priority 2013, published 2016):

Tests used:
[1] = target: T1, Recombinant human peroxiredoxin 1 (Homo sapiens, UniProt Q06830); assay: Tavocept-derived mesna adducts on Prx 1 (digest, LC-MS); format: binding
T1 construct: purchased SigmaAldrich
T1 sequence (Q06830 1-199): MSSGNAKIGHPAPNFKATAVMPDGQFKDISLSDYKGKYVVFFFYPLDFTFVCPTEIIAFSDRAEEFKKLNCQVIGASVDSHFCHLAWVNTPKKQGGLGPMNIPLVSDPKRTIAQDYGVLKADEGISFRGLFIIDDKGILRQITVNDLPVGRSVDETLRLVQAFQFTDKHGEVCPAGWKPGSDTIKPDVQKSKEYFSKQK
Protocol: Recombinant human peroxiredoxin 1 (purchased from SigmaAldrich; 333 μg; 0.015 micromoles) was reduced using an excess of dithiothreitol (DTT; 35 micromoles) in NH4HCO3 buffer (40 mM, pH 8.0) at 37° C. for 50 minutes (total reaction volume was 750 μL; final Prx concentration was 20 μM; and final DTT concentration was 46 mM). […] (total reaction volume was 500 μL). After 16-18 hours incubation, each reaction was removed and chromatographed using G25 Sephadex columns.
In brief, the G25 chromatographed Prx1 incubation reactions were digested with Trypsin Gold. Trypsin Gold was dissolved in 400 μL of NH4HCO3 and 100 μL of acetonitrile. A 100-150 μL volume of this Trypsin Gold stock was then added to 500 μL of the aforementioned final sample with 75 μL of acetonitrile and then the reaction volume was adjusted to a total of 750 μL with NH4HCO3. The sample was incubated for 6 hours at 37° C. Chymotrypsin digests were by dissolving chymotrypsin in 1M HCL. A 50 μL volume of this chymotrypsin stock solution was added to added to 500 μL of the aforementioned final sample along with 10% (v/v) of CaCl2 (100 mM stock). NH4HCO3 buffer was then added to bring the total reaction volume to 750 μL. Chymotrypsin digests were incubated for 16 hours at 30° C. Following digest by either trypsin or chymotrypsin, reactions were lyophilized to dryness overnight and then resuspended in a minimal amount of HPLC grade water prior to LC MS analyses.
A Symmetry C18 HPLC column (Waters, Franklin, Mass.; 3.5 μm; 4.6×75 mm) and a Waters Alliance liquid chromatography system (Waters 2695; Franklin, Mass.) coupled to a Micromass single quadropole mass detector (Micromass ZMD; Manchester, UK) were used to analyze fragments from trypsin or chymotrypsin digested human Prx1. The mobile phase contained 0.1% of formic acid throughout the run and the flow rate was 0.35 ml/min. […]

[2] = target: γ-Glutamyltranspeptidase (Homo sapiens, UniProt P19440); assay: γ-glutamyltranspeptidase enzyme activity (summary Table 27); format: biochemical
Chain of γ-Glutamyltranspeptidase (P19440 whole entry): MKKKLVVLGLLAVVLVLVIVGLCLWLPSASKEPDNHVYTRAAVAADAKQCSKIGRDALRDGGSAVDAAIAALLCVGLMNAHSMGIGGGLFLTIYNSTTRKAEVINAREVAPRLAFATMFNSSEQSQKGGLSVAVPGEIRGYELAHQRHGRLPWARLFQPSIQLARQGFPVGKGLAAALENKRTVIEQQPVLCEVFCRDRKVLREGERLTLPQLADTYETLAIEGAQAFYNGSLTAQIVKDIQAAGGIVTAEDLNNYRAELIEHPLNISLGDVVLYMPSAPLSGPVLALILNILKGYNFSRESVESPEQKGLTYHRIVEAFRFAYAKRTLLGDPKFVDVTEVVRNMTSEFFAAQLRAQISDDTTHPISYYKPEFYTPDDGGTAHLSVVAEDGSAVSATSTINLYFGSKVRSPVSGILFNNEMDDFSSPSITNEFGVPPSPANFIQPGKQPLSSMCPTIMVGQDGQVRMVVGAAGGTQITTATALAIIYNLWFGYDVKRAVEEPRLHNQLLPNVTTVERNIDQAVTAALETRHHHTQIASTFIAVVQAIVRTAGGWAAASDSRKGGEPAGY

[3] = system: Stage IV primary adenocarcinoma of the lung; assay: Tavocept Phase III Clinical Trial (Interim Analysis); format: in vivo, patients
From the text: In the Tavocept Phase III Clinical Trial pre-specification was made through stratification factors including sex (i.e., male versus female) and taxane treatment (i.e., paclitaxel versus docetaxel). Eligible patients had not received prior drug treatment for their cancer, and inclusion in the trial was also allowed for patients who had relapsed following surgery for earlier stage disease as well as patients with central nervous system metastasis. A total of 540 patients were enrolled on the trial.
The primary endpoint of this study was overall survival (OS); defined as the time period from the date of patient randomization to the date of death due to any cause.
All patients received standard combination chemotherapy (taxane agent plus cisplatin) and either Tavocept or placebo.
The primary endpoint for analysis was the duration of overall survival, defined as the time from the date of randomization to the date of death due to any cause. The number of mortality events used for the final analysis depended upon the number of patients enrolled into the study (provided the sample size was adjusted at the interim analysis). For the primary analysis, the expected number of total mortality events was approximately 416 mortality events for a sample size of 575 patients.
The one-sided log-rank test was performed in order to allow the application of the adaptive methodology. Details of this 2-stage adaptive design are described below. Kaplan-Meier survival curves (including identification of censored observations) was presented by treatment group, as well as median survival times and their 95% confidence intervals.
The following specific endpoints were evaluated with pre-specified analyses in order to evaluate for potential clinically and statistically significant differences between Tavocept- and placebo-treated patients.
The incidence of cisplatin renal toxicity and anemia, and the impact of emesis on daily life were analyzed using the Cochran-Mantel-Haenszel (CMH) tests for proportions. The CMH test was applied in the comparison between Tavocept and placebo where adjustment for prognostic factors is clinically important (e.g., adjusting for baseline characteristics). To control for Type I error due to multiple comparisons of safety data, a nominal, 2-sided p-value of less than 0.0125 was used for each comparison of renal toxicity, anemia, and emesis.

[4] = target: T2, Recombinant human Trx (Homo sapiens, UniProt P10599); assay: LC MS of Trypsin digested Trx after incubation with Tavocept, mesna or glutathione; format: binding; parameters: purchased Sigma (SigmaAldrich); host or cells: E. coli; details: 10 mM, 4 to 6 hours
T2 sequence (P10599 1-105): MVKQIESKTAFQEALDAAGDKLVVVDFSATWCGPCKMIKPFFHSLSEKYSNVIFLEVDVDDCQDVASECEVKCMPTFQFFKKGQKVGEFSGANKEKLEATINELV

[5] = Female Non-Smokers receiving paclitaxel and cisplatin
[6] = Females receiving paclitaxel and cisplatin
[7] = Male & Female Non-Smokers receiving paclitaxel and cisplatin

O=S(=O)([O-])CCSSCCS(=O)(=O)[O-].[Na+].[Na+] [Tavocept, disodium 2,2′-dithio-bis-ethane sulfonate]
Tavocept-derived mesna Adduct detected? ([1]; chymotryptic fragment TDKHGEVCPAGW (Cys 173) of human Prx 1): Yes
Tavocept-derived mesna Adduct detected? ([1]; chymotryptic fragment VCPTEIIAF (Cys 52) of human Prx 1): Yes
Tavocept-derived mesna Adduct detected? ([1]; tryptic fragment HGEVCPAGWK (Cys 173) of human Prx 1): Yes
Effect on γ-glutamyltranspeptidase enzyme activity [2]: heteroconjugates can inhibit γ-glutamyl-
Median survival [3, 5]: 27.0 months
Median survival advantage vs placebo [3, 5]: 13.6 months
Median survival [3, 6]: 25.0 months
Median survival advantage vs placebo [3, 6]: 11.8 months
Median survival [3, 7]: 25.2 months
Median survival advantage vs placebo [3, 7]: 12 months
Median survival advantage vs placebo ([3]; PS 1 ECOG Performance Status subjects): 2.82 months
Median survival advantage vs placebo ([3]; PS 1 ECOG females receiving paclitaxel and cisplatin): 11.1 months
Median survival advantage vs placebo ([3]; PS 1 ECOG males and females receiving paclitaxel and cisplatin): 4.0 months
Median survival ([3]; Stage IV M1b subjects): 11.33 months
2-year survival ([3]; all females receiving paclitaxel and cisplatin): 51%
2-year survival ([3]; all subjects receiving paclitaxel and cisplatin): 30%
Overall median survival advantage vs placebo ([3]; all subjects, paclitaxel or docetaxel plus cisplatin, P=0.723): greater than 2 month
Protection against chemotherapy-induced kidney toxicity ([3]; compared to placebo, P=0.0528): improvement in the relative creatine decrease from baseline
Anemia ([3]; compared to the placebo arm): reduced anemia
2-year survival ([3]; female non-smokers receiving paclitaxel and cisplatin): 72.4%
Median survival advantage vs placebo ([3]; female subjects >=65 years receiving paclitaxel and cisplatin): 2.1 months
Median survival ([3]; female subjects receiving paclitaxel plus cisplatin, Newly Diagnosed): 25.0 months
Median survival ([3]; female subjects receiving paclitaxel plus cisplatin, no subsequent therapy): 14.2 months
Survival vs placebo ([3]; female subjects with CNS Metastases, paclitaxel plus cisplatin, P=0.0343): Survival advantage in favor of Tavocept
2-year survival ([3]; male and female non-smokers receiving paclitaxel and cisplatin): 63%
Median survival advantage vs placebo ([3]; male and female subjects >=65 years receiving paclitaxel and cisplatin): 3.5 months
Median survival ([3]; male and female subjects receiving paclitaxel plus cisplatin, Newly Diagnosed): 15.3 months
Median survival ([3]; male and female subjects receiving paclitaxel plus cisplatin, no subsequent therapy): 10.0 months
Median period of additional survival after starting new chemotherapy, longer than placebo ([3]; patients previously receiving Tavocept, paclitaxel and cisplatin): 3.4 months
Median overall survival from randomization ([3]; patients receiving post-study new chemotherapy, paclitaxel and cisplatin): 23.0 months
Median survival ([3]; subjects Newly Diagnosed at enrollment): 14.19 months
Median survival advantage vs placebo ([3]; subjects greater than or equal to 65 years of age): 3 months
Median survival ([3]; subjects who received paclitaxel and cisplatin): 15.4 months
Median survival advantage vs placebo ([3]; subjects who received paclitaxel and cisplatin instead of docetaxel and cisplatin): 3.68 months
Median survival ([3]; subjects with CNS Metastases present): 11.76 months
Overall survival, patients receiving post study therapy ([3]; vs 9.2 months placebo): 12.2 months
Mesna-Cysteine Adduct Detected? ([4]; fragment CMPTFQFFK (cys73)): Yes
Mesna-Cysteine Adduct Detected? ([4]; fragment LVVVDFSATWCGPCK (active site cys32 and cys35)): No
Mesna-Cysteine Adduct Detected? ([4]; fragment YSNVIFLEVDVDDCQDVASECEVK (cys62 and cys69)): Yes
